One data set addresses T1, APJ (Homo sapiens, UniProt P35414).
T1 sequence (P35414 1-380): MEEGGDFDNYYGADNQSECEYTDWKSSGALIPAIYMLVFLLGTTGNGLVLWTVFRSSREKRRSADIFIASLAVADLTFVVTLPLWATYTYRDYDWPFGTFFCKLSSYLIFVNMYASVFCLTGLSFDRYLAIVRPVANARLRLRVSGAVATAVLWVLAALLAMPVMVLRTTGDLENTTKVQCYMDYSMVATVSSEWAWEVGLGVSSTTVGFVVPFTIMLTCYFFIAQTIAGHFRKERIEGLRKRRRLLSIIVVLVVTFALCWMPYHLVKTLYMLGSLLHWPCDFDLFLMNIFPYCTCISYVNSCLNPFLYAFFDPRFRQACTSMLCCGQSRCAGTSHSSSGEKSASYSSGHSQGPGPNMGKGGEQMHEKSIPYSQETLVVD
Put plainly: APJ cAMP assay (primary, cAMP HitHunter, CHO-K1-APJ cells). Also noted: host or cells: CHO-K1 (CHO-K1-APJ / CHO-k1-AGTRL1). In kind it is cell-based. The procedure: To identify small-molecule antagonists of the apelin receptor (APJ) we interrogated the SBP compound file of ~425,000 compounds using CHO-k1-AGTRL1 cells overexpressing human APJ and a competitive immunoassay of intracellular cAMP [59]. The compound file was screened at a concentration of 10 μM. For all 333 plates assayed, the average Z-factor = 0.68 and the average S/B = 8.2, indicating a robust assay performance. […] There were 2550 compounds that met this criterion, representing a hit rate of ~0.6%. […] Included in this hit set was a series of aminoquinolines, exemplified by compound 1 (Fig 1B). […] As part of an initial hit-validation strategy, these compounds and three other commercially available analogs were purchased for further testing. The purity and identify of all compounds were confirmed by NMR and LC-MS, and they were subsequently retested in a battery of cell-based assays of APJ function and counter screens. […] (Fig 1D).
PathHunter™ GPCR Arrestin and cAMP Hunter™ cell lines (DiscoveRx Corp., Fremont, CA) were used to assay G-protein-dependent signaling and β-arrestin recruitment to APJ. CHO-K1 cells stably expressing APJ (CHO-K1-APJ) or AT1 (CHO-K1-AT1) with β-arrestin/β-galactosidase enzyme fragment complementation constructs were maintained in HAM's F-12 medium (Hyclone, Logan, UT) supplemented with 10% FBS, 1X Penicillin-Streptomycin-Glutamine (Invitrogen; Carlsbad, CA), 300 μg/ml hygromycin (EMD Biosciences, San Diego, CA), and 800 μg/ml Geneticin (Cellgro, Manassas, VA). Primary Human Retinal Microvascular Endothelial Cells (HRECs) were purchased from Cell Systems (Kirkland, WA) and maintained in Complete Classic Medium with CultureBoost-R™ (Cell Systems). Parent CHO-K1 cells were obtained from ATCC and maintained in HAM’s F-12 medium supplemented with 10% FBS, and1X Penicillin-Streptomycin-Glutamine (Invitrogen; Carlsbad, CA). All cells were incubated at 37°C (5% CO2, 95% relative humidity) and maintained at less than 70% to 80% confluence (approximately 75,000 cells/cm^2). Cell heterologously expressing APJ or AT1 were not used after 10 passages. HRECs were not used in any experiments after five passages.
All reagents unless otherwise specified are components of the cAMP HitHunter (DiscoveRx) kit. Ligand Buffer + 60 μM Forskolin (Cayman Chemical, Ann Arbor, MI) was made fresh on the day of the experiment and used for the dilution of positive and negative controls as well as all peptides. CHO-K1-APJ cells were dispensed into a 1536-well tissue culture microplate (Corning, Corning, NY) using a Multidrop at a seeding density of 1,000 cells/well and returned to the incubator. The next day, the cell culture media was removed and replaced with 15 μl/well of assay buffer (1X HBSS, 10 mM HEPES) containing anti-cAMP antibody (DiscoveRx). […] Plates were incubated at room temperature in the dark for 3 hours prior to chemiluminescence detection on an EnVision (Perkin Elmer) using a counting time of 1 s/well.

A short description of a further data set: LogD (pH 7.4). Type of data set: physicochemical.
The nature of data set [1]: Plasma-protein binding, rat. Type of data set: in vitro ADME.

In general, IC50 refers to the concentration that inhibits the measured activity by half. For orientation: logD means the decadic logarithm of the distribution of all forms, ionised or not, between an organic phase and buffer at a given pH. Read a high logD as higher lipophilicity. Take `CCN(CC)Cc1cc(Nc2ccnc3cc(Cl)ccc23)ccc1O` [AQ, amodiaquine]: on APJ, the IC50 was determined as 3.45 ± 0.028 µM. For the same molecule, the “Mode of APJ antagonism” value at APJ (Ap13 concentration response curves after pre-incubation with AQ, Schild-type analysis) is recorded as “non-competitive APJ antagonist”. In addition, in the data set “LogD (pH 7.4)”, the logD came out at 2.37. The Plasma-protein binding in data set [1] (1 μM) is on record as 75.3 % bound; in data set [1] (10 μM) it was 76.8 % bound.

These data come from article PMC6135396, “Repurposing antimalarial aminoquinolines and related compounds for treatment of retinal neovascularization” (PLoS ONE, 2018).
